From paper PMC12813973, “Consequences of Peptide Macrocyclization Revealed by Virus-Inspired β‑Hairpin Mimetics” (ACS Chemical Biology, 2025)
Where two headings read alike, the source gives them in different places.

Target: T1, STAT1 (Homo sapiens, UniProt P42224)
T1 construct: full-length STAT1 (Uniprot #P42224-1) was expressed in E. coli; His tag (pEXP-NHis vector) (N); made in house; host or cells: E. coli T7 Express
T1 sequence (P42224 1-750): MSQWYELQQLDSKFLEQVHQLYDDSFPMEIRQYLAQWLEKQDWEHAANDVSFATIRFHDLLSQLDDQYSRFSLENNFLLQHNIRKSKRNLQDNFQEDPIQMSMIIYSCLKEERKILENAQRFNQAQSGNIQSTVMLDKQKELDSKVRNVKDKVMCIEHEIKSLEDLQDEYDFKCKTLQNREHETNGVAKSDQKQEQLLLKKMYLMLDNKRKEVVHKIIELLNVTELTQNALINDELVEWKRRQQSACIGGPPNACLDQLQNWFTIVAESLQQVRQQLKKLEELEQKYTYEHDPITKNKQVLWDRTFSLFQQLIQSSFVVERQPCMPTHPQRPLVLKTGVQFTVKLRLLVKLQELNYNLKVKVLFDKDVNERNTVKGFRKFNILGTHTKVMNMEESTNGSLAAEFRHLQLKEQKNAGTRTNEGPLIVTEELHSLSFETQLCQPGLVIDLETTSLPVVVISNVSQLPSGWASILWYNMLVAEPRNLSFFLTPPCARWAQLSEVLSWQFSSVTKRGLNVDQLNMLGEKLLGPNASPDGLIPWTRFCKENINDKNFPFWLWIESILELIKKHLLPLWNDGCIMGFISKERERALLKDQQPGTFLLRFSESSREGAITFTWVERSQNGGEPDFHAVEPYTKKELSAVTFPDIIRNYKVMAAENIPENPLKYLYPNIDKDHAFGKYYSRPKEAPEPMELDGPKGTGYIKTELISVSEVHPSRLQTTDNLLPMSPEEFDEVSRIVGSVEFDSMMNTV
Test: Isothermal titration calorimetry (ITC) of peptide binding to STAT1
Method: To determine affinities and thermodynamic profiles of binding, we performed isothermal titration calorimetry (ITC) experiments for peptides 1, 2, 3, 4, 7, and 8 (Figures A,B and S1,S2, Table S1). […] The experiments were repeated in two different buffer systems, TBST (50 mM Tris pH 8.0, 300 mM NaCl, 0.01% Tween-20) and PBST ([…], 150 mM NaCl, 0.01% Tween-20), to account for possible buffer protonation enthalpy artifacts. […]
Isothermal titration calorimetry (ITC)
ITC experiments were performed using a PEAQ ITC instrument (Malvern Panalytical) in either TBST (50 mM Tris pH 8.0, 300 mM NaCl, 0.5 mM TCEP, 0.01% Tween -20) or PBST (10 mM sodium phosphate pH 7.4, 150 mM NaCl, 0.01% Tween -20) as reaction buffers. STAT1 protein was buffer -exchanged into reaction buffer supplemented with 2% DMSO on a NAP -5 deslating column (Cytiv a #17085301) and its concentration was adjusted to 10 or 20 μM.
Peptides were diluted in reaction buffer from DMSO stocks to a matching 2% DMSO concentration. Peptide concentrations were adjusted to approximately 100-200 μM. ITC experiments were performed with STAT1 in the cell and peptides in the syringe at 25°C, with 750 RPM stirring, DP = 4 μcal/sec. 18 injections of 2 μl were performed over a 50 min titration.
Thermogram integra tion and isotherm fitting were performed using the PEAQ ITC analysis software (Malvern Panalytical ). Isotherms were fitted using a 1:1 binding model. Due to challenges in determining peptide concentrations with high accuracy , protein concentrations and stoichiometry (N=1.0) were kept constant during isotherm fitting, whereas peptide concentrations were allowed to vary. Fixing a single reactant concentration during fitting is acceptable given the sufficiently high C -values and isotherm curvature observed in the […]
Offset subtraction was implemented to remove injection heats.

[1] = PBST, replicate 1 (first listed run, Table S1)
[2] = PBST, replicate 2 (second listed run, Table S1)
[3] = PBST, replicate 3 (third listed run, Table S1)
[4] = TBST, replicate 1 (first listed run, Table S1)
[5] = TBST, replicate 2 (second listed run, Table S1)
[6] = TBST, replicate 3 (third listed run, Table S1)

In the case of `CC[C@H](C)[C@H](NC(=O)[C@H](Cc1ccccc1)NC(=O)[C@@H](NC(=O)[C@H](CO)NC(=O)[C@H](Cc1c[nH]c2ccccc12)NC(=O)[C@H](CCSC)NC(C)=O)C(C)C)C(=O)N[C@@H](Cc1c[nH]cn1)C(=O)NCC(=O)N[C@@H](Cc1c[nH]cn1)C(=O)N[C@@H](CC(=O)O)C(=O)NCC(=O)N[C@@H](CO)C(=O)N[C@@H](CC(N)=O)C(=O)N[C@@H](CCCCN)C(=O)NCC(=O)N[C@@H](CO)C(=O)N[C@@H](CCCCN)C(=O)N[C@H](C(=O)N[C@@H](Cc1ccc(O)cc1)C(=O)N[C@H](C(N)=O)[C@@H](C)O)[C@@H](C)O` [Peptide 1], the Kd (PBST pH 7.4 (NaPi, 150 mM NaCl, 0.01% Tween-20), average of 2–3 technical replicates, read-out: KD (ITC, summary Fig 2B)) is reported as 253 nM, the “-T∆S” value [1] is reported as 13.8 kcal/mol and the “∆G” value [1] is reported as -9.00 kcal/mol. The “∆H” value [1] was -22.8 kcal/mol, the “-T∆S” value [2] was 12.7 kcal/mol and the “∆G” value [2] was -9.17 kcal/mol. For the same molecule, the “∆H” value [2] was -21.8 kcal/mol, the “-T∆S” value [3] was 13.7 kcal/mol and the “∆G” value [3] was -8.87 kcal/mol. The “∆H” value [3] was -22.6 kcal/mol, the Kd (TBST (50 mM Tris pH 8.0, 300 mM NaCl, 0.01% Tween-20), 25°C, 1:1 model, average of three technical replicates ± SD (text and Fig 2A), SD, read-out: KD (ITC)) was 533 ± 20 nM and the “-TΔS (ITC)” value (TBST, mean ± SD, SD) was 10.10 ± 1.48 kcal/mol. For the same molecule, the “ΔH (ITC)” value (TBST, mean ± SD, SD) was -18.56 ± 1.55 kcal/mol, the “-T∆S” value [4] was 9.86 kcal/mol and the “∆G” value [4] was -8.54 kcal/mol. The “∆H” value [4] was -18.1 kcal/mol, the “-T∆S” value [5] was 8.75 kcal/mol and the “∆G” value [5] was -8.58 kcal/mol. For the same molecule, the “∆H” value [5] was -17.3 kcal/mol, the “-T∆S” value [6] was 11.7 kcal/mol and the “∆G” value [6] was -8.55 kcal/mol. The “∆H” value [6] was -20.3 kcal/mol.
